Experimental data reported in paper PMC9523454 (Pharmacology Research & Perspectives, 2022).
Values joined by “and” are separate entries in the source; they are usually repeats but may differ in a detail not shown here. Equal values may be shown once. No end group written: not given here.

Legend:
GLP‐1R/GIPR heteromer = format: cell-based, human; conditions: 1 μM ligand; HEK‐293, fixed ratio of GLP‐1R‐Nluc and GIPR‐SYFP2; mean ± SEM, at least three independent experiments
GIPR = conditions: cited from earlier work
GIPR‐Nluc (human) = GIPR‐Nluc (human) (UniProt P48546); assay: FRET or BRET
GLP‐1R‐Nluc (human) = GLP‐1R‐Nluc (human) (UniProt P43220); assay: FRET or BRET
UniProt P43220, sequence (P43220 24-463): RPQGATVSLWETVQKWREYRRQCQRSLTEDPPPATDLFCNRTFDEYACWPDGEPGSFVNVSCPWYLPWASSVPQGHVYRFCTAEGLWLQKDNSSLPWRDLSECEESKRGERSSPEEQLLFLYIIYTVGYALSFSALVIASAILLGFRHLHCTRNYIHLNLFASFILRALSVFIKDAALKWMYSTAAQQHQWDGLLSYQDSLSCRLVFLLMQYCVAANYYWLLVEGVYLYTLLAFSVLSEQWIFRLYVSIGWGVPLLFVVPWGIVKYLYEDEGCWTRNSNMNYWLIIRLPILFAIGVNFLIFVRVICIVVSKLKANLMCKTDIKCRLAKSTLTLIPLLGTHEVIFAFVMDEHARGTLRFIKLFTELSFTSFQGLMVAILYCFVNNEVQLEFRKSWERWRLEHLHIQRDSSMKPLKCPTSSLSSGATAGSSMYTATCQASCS

UniProt P48546, sequence (P48546 22-466): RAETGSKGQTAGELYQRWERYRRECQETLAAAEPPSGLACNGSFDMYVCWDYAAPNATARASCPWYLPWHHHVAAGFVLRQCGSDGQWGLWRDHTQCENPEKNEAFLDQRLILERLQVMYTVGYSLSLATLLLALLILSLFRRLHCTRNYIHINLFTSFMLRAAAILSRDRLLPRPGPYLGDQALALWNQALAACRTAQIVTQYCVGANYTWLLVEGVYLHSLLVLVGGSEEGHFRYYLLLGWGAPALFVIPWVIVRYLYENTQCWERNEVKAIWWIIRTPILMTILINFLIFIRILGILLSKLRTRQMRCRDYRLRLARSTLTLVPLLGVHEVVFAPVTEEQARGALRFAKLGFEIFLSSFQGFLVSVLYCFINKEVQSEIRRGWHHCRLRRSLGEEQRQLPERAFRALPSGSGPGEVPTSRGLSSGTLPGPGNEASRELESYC

| Substance | Change in BRET ratio vs non‐stimulated cells (GLP‐1R/GIPR heteromer) | pEC50 of the agonist GLP-1 for recruitment (GLP‐1R‐Nluc (human)) | also measured |
| --- | --- | --- | --- |
| (Pro3)GIP: previously reported to be a GIPR antagonist but subsequently shown to be a low potency GIPR agonist; custom synthesized (YAPGTFISDYSIAMDKIHQQDFVNWLLAQKGKKNDWKHNITQ; Gastric inhibitory polypeptide; UniProt P09681 52-93, looked up, variant E3P) | no effect on BRET ratio | – | Activity at GIPR (GIPR): low potency GIPR agonist |
| GLP‐1 (9‐36): GLP‐1 metabolite, metabolic breakdown product of GLP‐1 (EGTFTSDVSSYLEGQAAKEFIAWLVKGR-NH2; UniProt P01275 100-127, looked up, fragment) | significantly increased the BRET ratio (p < .001) | – | – |
| NES‐Venus‐mGαq | – | 7.8 -log EC50/M and 7.7 -log EC50/M and 7.9 -log EC50/M | pEC50 of the agonist GIP for recruitment (GIPR‐Nluc (human)): 8 -log EC50/M and 7.6 -log EC50/M and 7.8 -log EC50/M |
| NES‐Venus‐mGαs | – | 7.8 -log EC50/M and 7.5 -log EC50/M and 7.7 -log EC50/M | – |
| Oxyntomodulin: posttranslational product of proglucagon and an endogenous dual GLP‐1R/glucagon receptor agonist (HSQGTFTSDYSKYLDSRRAQDFVQWLMNTKRNRNNIA; Oxyntomodulin; UniProt P01275 53-89, looked up) | no effect on BRET ratio | – | – |
| exendin‐4 (9–39) | no significant effect on BRET ratio | – | – |
